Measurements from US9681664B2, “Macrocyclic picolinamides as fungicides” (Dow Agrosciences LLC, priority 2012, dated 2017).
Read-outs that look alike come from different tables or passages of the source.

Legend:
[1] = tested on: Mycosphaerella graminicola; Anamorph: Septoria tritici; test: Leaf blotch of wheat (SEPTTR) disease control on wheat seedlings; type: in vivo; conditions: for pest or weed control at 100 ppm / pest or weed control at 121.5 g/ha: Zymoseptoria tritici; for pest or weed control at 121.5 g/ha: low volume application, 121.5 g/H; for pest or weed control at 100 ppm / SEPTTR 1DP disease control / SEPTTR 3DC disease control: 100 ppm
Outline: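 Protective or curative format: Septoria tritici inoculation either preceded or followed fungicide application to first-leaf Yuma wheat. Severity scored 0–100%; control expressed versus untreated.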

[2] = tested on: Puccinia triticina; Synonym: Puccinia recondite f. sp. tritici; test: Wheat brown rust (PUCCRT) disease control on wheat seedlings; type: in vivo; conditions: for pest or weed control at 100 ppm / pest or weed control at 121.5 g/ha: Puccinia triticina; for pest or weed control at 121.5 g/ha: low volume application, 121.5 g/H; for pest or weed control at 100 ppm / PUCCRT 1DP disease control / PUCCRT 3DC disease control: 100 ppm
Outline: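 Yuma wheat grown to first fully emerged leaf was inoculated with Puccinia triticina spore suspension either before or after fungicide treatment, held overnight at 22° C. and 100% RH in darkness, then kept at 24° C. Fungicide applied by booth sprayer to run-off (acetone/water, 110 ppm Triton X-100) or as EC by track spray.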

[3] = 24 h, High volume application, 1 Day Protectant, read-out: SEPTTR 1DP disease control
[4] = 72 h, High volume application, 3 Day Curative, read-out: SEPTTR 3DC disease control
[5] = 24 h, High volume application, 1 Day Protectant, read-out: PUCCRT 1DP disease control
[6] = 72 h, High volume application, 3 Day Curative, read-out: PUCCRT 3DC disease control
[7] = 24 h, Wheat Leaf Blotch, 1 Day Protectant, high volume application, read-out: Disease Control SEPTTR 1 DP 100 ppm
[8] = 24 h, Wheat Leaf Blotch, 1 Day Protectant, read-out: Disease Control SEPTTR 1 DP 121.5 g/H
[9] = 72 h, Wheat Leaf Blotch, 3 Day Curative, high volume application, read-out: Disease Control SEPTTR 3 DC 100 ppm
[10] = 72 h, Wheat Leaf Blotch, 3 Day Curative, read-out: Disease Control SEPTTR 3 DC 121.5 g/H
[11] = 24 h, Wheat Brown Rust, 1 Day Protectant, high volume application, read-out: Disease Control PUCCRT 1 DP 100 ppm
[12] = 24 h, Wheat Brown Rust, 1 Day Protectant, read-out: Disease Control PUCCRT 1 DP 121.5 g/H
[13] = 72 h, Wheat Brown Rust, 3 Day Curative, high volume application, read-out: Disease Control PUCCRT 3 DC 100 ppm
[14] = 72 h, Wheat Brown Rust, 3 Day Curative, read-out: Disease Control PUCCRT 3 DC 121.5 g/H
[15] = High volume application, 1 Day Protectant
[16] = High volume application, 3 Day Curative

Molecule	pest or weed control at 100 ppm [1, 3] [%]	pest or weed control at 100 ppm [1, 4] [%]	pest or weed control at 100 ppm [2, 5] [%]	pest or weed control at 100 ppm [2, 6] [%]	further results
COc1ccnc(C(=O)N[C@H]2CCC[C@H](OC(=O)C3CCCC3)[C@@H](OC3CCCC3)[C@H](C)OC2=O)c1OCOC(=O)C(C)C [F157]	80 to 100	80 to 100	80 to 100	80 to 100	–
COc1ccnc(C(=O)N[C@H]2CCC[C@H](Oc3ccccc3)[C@@H](OC(=O)C3CCCC3)[C@H](C)OC2=O)c1OC(=O)C1CC1 [F236]	–	–	–	–	pest or weed control at 100 ppm [1, 7]: 0 to 80%; pest or weed control at 121.5 g/ha [1, 8]: 80 to 100%; pest or weed control at 100 ppm [1, 9]: 0 to 80%; pest or weed control at 121.5 g/ha [1, 10]: 0 to 80%; pest or weed control at 100 ppm [2, 11]: 80 to 100%; pest or weed control at 121.5 g/ha [2, 12]: 0 to 80%; pest or weed control at 100 ppm [2, 13]: 0 to 80%; pest or weed control at 121.5 g/ha [2, 14]: < 0%
COc1ccnc(C(=O)N[C@H]2CCC[C@H](Oc3ccccc3)[C@@H](OC3CCCC3)[C@H](C)OC2=O)c1O [F75]	80 to 100	80 to 100	80 to 100	80 to 100	–
COc1ccnc(C(=O)N[C@H]2CCC[C@H](Oc3ccc(C)cc3)[C@@H](Oc3ccc(C)cc3)[C@H](C)OC2=O)c1O [F113]	< 0	0 to 80	0 to 80	0 to 80	–
COc1ccnc(C(=O)N[C@H]2CCC[C@H](OCC(C)C)[C@@H](OC/C=C/C(F)(F)F)[C@H](C)OC2=O)c1O [F53]	80 to 100	0 to 80	80 to 100	80 to 100	–
COc1ccnc(C(=O)N[C@H]2CCC[C@H](Oc3ccc(F)cc3)[C@@H](Oc3ccc(F)cc3)[C@H](C)OC2=O)c1OCOC(=O)C(C)C [F49]	80 to 100	80 to 100	80 to 100	80 to 100	–
CCCO[C@H]1CCC[C@H](NC(=O)c2nccc(OC)c2O)C(=O)O[C@@H](C)[C@@H]1Oc1ccc(OC)cc1 [F270]	–	–	–	–	pest or weed control at 100 ppm [1, 7]: 80 to 100%; pest or weed control at 100 ppm [1, 9]: 0 to 80%; pest or weed control at 100 ppm [2, 11]: 80 to 100%; pest or weed control at 100 ppm [2, 13]: 80 to 100%
CCCO[C@H]1[C@H](C)OC(=O)[C@@H](NC(=O)c2nccc(OC)c2O)CCC[C@@H]1Oc1ccc(F)cc1 [F264]	–	–	–	–	pest or weed control at 100 ppm [1, 7]: 80 to 100%; pest or weed control at 100 ppm [1, 9]: 0 to 80%; pest or weed control at 100 ppm [2, 11]: 0 to 80%; pest or weed control at 100 ppm [2, 13]: 80 to 100%
CCCO[C@H]1CCC[C@H](NC(=O)c2nccc(OC)c2OC(C)=O)C(=O)O[C@@H](C)[C@@H]1Oc1cccc(F)c1 [F275]	–	–	–	–	pest or weed control at 100 ppm [1, 7]: 80 to 100%; pest or weed control at 121.5 g/ha [1, 8]: 80 to 100%; pest or weed control at 100 ppm [1, 9]: 80 to 100%; pest or weed control at 121.5 g/ha [1, 10]: 80 to 100%; pest or weed control at 100 ppm [2, 11]: 80 to 100%; pest or weed control at 121.5 g/ha [2, 12]: 80 to 100%; pest or weed control at 100 ppm [2, 13]: 80 to 100%; pest or weed control at 121.5 g/ha [2, 14]: 80 to 100%
COc1ccnc(C(=O)N[C@H]2CCC[C@H](OC3CCCC3)[C@@H](OC(=O)C3CCCC3)[C@H](C)OC2=O)c1O [F143]	80 to 100	0 to 80	80 to 100	80 to 100	–
COc1ccnc(C(=O)N[C@H]2CCC[C@H](Oc3ccccc3)[C@@H](OC(=O)C3CCCC3)[C@H](C)OC2=O)c1O [F232]	–	–	–	–	pest or weed control at 100 ppm [1, 7]: 80 to 100%; pest or weed control at 100 ppm [1, 9]: 0 to 80%; pest or weed control at 100 ppm [2, 11]: 80 to 100%; pest or weed control at 100 ppm [2, 13]: 80 to 100%
COc1ccnc(C(=O)N[C@H]2CCC[C@H](Oc3ccc(F)cc3)[C@@H](Oc3ccc(F)cc3)[C@H](C)OC2=O)c1OCOC(C)=O [F48]	80 to 100	80 to 100	80 to 100	80 to 100	–
COc1ccnc(C(=O)N[C@H]2CCC[C@H](OCC(C)C)[C@@H](OC/C=C/C(F)(F)F)[C@H](C)OC2=O)c1OC(C)=O [F58]	80 to 100	80 to 100	80 to 100	80 to 100	–
COc1ccc(O[C@H]2CCC[C@H](NC(=O)c3nccc(OC)c3OCOC(=O)C(C)C)C(=O)O[C@@H](C)[C@@H]2OCC(C)C)cc1 [F69]	80 to 100	80 to 100	80 to 100	80 to 100	–
N-[(3S,7S,8S,9S)-7,8-dibenzyloxy-9-methyl-2-oxo-oxonan-3-yl]-3-hydroxy-4-methoxypyridine-2-carboxamide [F15]	–	–	–	–	SEPTTR 1DP disease control [1, 15]: A (80-100); SEPTTR 3DC disease control [1, 16]: A (80-100); PUCCRT 1DP disease control [2, 15]: A (80-100); PUCCRT 3DC disease control [2, 16]: A (80-100)
COc1ccnc(C(=O)N[C@H]2CCC[C@H](OCC(C)C)[C@@H](OC3CCCCC3)[C@H](C)OC2=O)c1O [F210]	80 to 100	80 to 100	80 to 100	80 to 100	–
COc1ccnc(C(=O)N[C@H]2CCC[C@H](OCC(C)C)[C@@H](Oc3ccc(F)cc3)[C@H](C)OC2=O)c1OCOC(C)=O [F61]	80 to 100	80 to 100	80 to 100	80 to 100	–
COc1ccnc(C(=O)N[C@H]2CCC[C@H](Oc3ccccc3)[C@@H](OC/C=C/C(F)(F)F)[C@H](C)OC2=O)c1O [F104]	80 to 100	< 0	80 to 100	< 0	–
COc1ccc(O[C@H]2CCC[C@H](NC(=O)c3nccc(OC)c3OCOC(C)=O)C(=O)O[C@@H](C)[C@@H]2Oc2ccc(F)cc2)cc1 [F60]	80 to 100	80 to 100	80 to 100	80 to 100	–
COc1ccc(O[C@H]2[C@H](C)OC(=O)[C@@H](NC(=O)c3nccc(OC)c3OCOC(C)=O)CCC[C@@H]2Oc2ccc(OC)cc2)cc1 [F66]	80 to 100	0 to 80	80 to 100	80 to 100	–
CCCCCO[C@H]1[C@H](C)OC(=O)[C@@H](NC(=O)c2nccc(OC)c2O)CCC[C@@H]1OC1CCCC1 [F164]	80 to 100	80 to 100	80 to 100	80 to 100	–
COc1ccnc(C(=O)N[C@H]2CCC[C@H](Oc3ccccc3)[C@@H](OCCCc3ccccc3)[C@H](C)OC2=O)c1OC(C)=O [F131]	80 to 100	80 to 100	80 to 100	80 to 100	–
[2-[[(3S,7S,8S,9S)-8-isobutoxy-9-methyl-7-(2-methylallyloxy)-2-oxo-oxonan-3-yl]carbamoyl]-4-methoxy-3-pyridyl]acetate [F18]	–	–	–	–	SEPTTR 1DP disease control [1, 15]: A (80-100); SEPTTR 3DC disease control [1, 16]: A (80-100); PUCCRT 1DP disease control [2, 15]: A (80-100); PUCCRT 3DC disease control [2, 16]: A (80-100)
COCCC(=O)Oc1c(OC)ccnc1C(=O)N[C@H]1CCC[C@H](OC2CCCC2)[C@@H](OC(=O)C2CC2)[C@H](C)OC1=O [F147]	80 to 100	80 to 100	80 to 100	80 to 100	–
COc1ccnc(C(=O)N[C@H]2CCC[C@H](Oc3ccc(F)cc3)[C@@H](OC3CCCC3)[C@H](C)OC2=O)c1OCOC(C)=O [F162]	80 to 100	80 to 100	80 to 100	0 to 80	–
